In US9051270B2, “Pyridone amides as modulators of sodium channels” (Vertex Pharmaceuticals Incorporated, priority 2013, dated 2015):

target: human Nav1.8 (Homo sapiens (Human), UniProt Q9Y5Y9); experiment: E-VIPR optical membrane potential assay with electrical stimulation; type: cell-based; conditions: HEK cells expressing human Nav1.8
Source text: Sodium channels are voltage-dependent proteins that can be activated by inducing membrane voltage changes by applying electric fields. […] The instrument comprises a microtiter plate handler, an optical system for exciting the coumarin dye while simultaneously recording the coumarin and oxonol emissions, a waveform generator, a current- or voltage-controlled amplifier, and a device for inserting electrodes in well. Under integrated computer control, this instrument passes user-programmed electrical stimulus protocols to cells within the wells of the microtiter plate.
24 hours before the assay on E-VIPR, HEK cells expressing human Nav1.8 were seeded in 384-well poly-lysine coated plates at 15,000-20,000 cells per well. […] Cells were grown in vented cap flasks, in 90% humidity and 5% CO2.
To make the solution added volume of 10% Pluronic F127 stock equal to volumes of CC2-DMPE+DiSBAC6(3). The order of preparation was first mixing Pluronic and CC2-DMPE, then adding DiSBAC6(3) while vortexing, then adding Bath1+β-Cyclodextrin.
1) Pre-spotted compounds (in neat DMSO) into compound plates. […] Final compound plate volume was 80 μL (80-fold intermediate dilution from 1 μL DMSO spot; 160-fold final dilution after transfer to cell plate).
2) Prepared Hexyl Dye Solution.
3) Prepared cell plates. On the day of the assay, medium was aspirated and cells were washed three times with 100 μL of Bath1 Solution, maintaining 25 μL residual volume in each well.
4) Dispensed 25 μL per well of Hexyl Dye Solution into cell plates. Incubated for 20-35 minutes at room temp or ambient conditions.
5) Dispensed 80 μL per well of Bath1 into compound plates. Acid Yellow-17 (1 mM) was added and Potassium Chloride was altered from 4.5 to 20 mM depending on the NaV subtype and assay sensitivity.
6) Washed cell plates three times with 100 μL per well of Bath1, leaving 25 μL of residual volume. Then transferred 25 uL per well from Compound Plates to Cell Plates. Incubated for 20-35 minutes at room temp/ambient condition.
7) Read Plate on E-VIPR. […] A pre-stimulus recording was performed for 0.5 seconds to obtain the un-stimulated intensities baseline. The stimulatory waveform was followed by 0.5 seconds of post-stimulation recording to examine the relaxation to the resting state.
Data was analyzed and reported as normalized ratios of emission intensities measured in the 460 nm and 580 nm channels. The response as a function of time was reported as the ratios obtained using the following formula: […]
The data was further reduced by calculating the initial (Ri) and final (Rf) ratios. These were the average ratio values during part or all of the pre-stimulation period, and during sample points during the stimulation period. The response to the stimulus R=Rf/Ri was then calculated and reported as a function of time.
Control responses were obtained by performing assays in the presence of a compound with the desired properties (positive control), such as tetracaine, and in the absence of pharmacological agents (negative control). Responses to the negative (N) and positive (P) controls were calculated as above. The compound antagonist activity A is defined as:
[formula] where R is the ratio response of the test compound

Sequence of human Nav1.8 (Q9Y5Y9 whole entry): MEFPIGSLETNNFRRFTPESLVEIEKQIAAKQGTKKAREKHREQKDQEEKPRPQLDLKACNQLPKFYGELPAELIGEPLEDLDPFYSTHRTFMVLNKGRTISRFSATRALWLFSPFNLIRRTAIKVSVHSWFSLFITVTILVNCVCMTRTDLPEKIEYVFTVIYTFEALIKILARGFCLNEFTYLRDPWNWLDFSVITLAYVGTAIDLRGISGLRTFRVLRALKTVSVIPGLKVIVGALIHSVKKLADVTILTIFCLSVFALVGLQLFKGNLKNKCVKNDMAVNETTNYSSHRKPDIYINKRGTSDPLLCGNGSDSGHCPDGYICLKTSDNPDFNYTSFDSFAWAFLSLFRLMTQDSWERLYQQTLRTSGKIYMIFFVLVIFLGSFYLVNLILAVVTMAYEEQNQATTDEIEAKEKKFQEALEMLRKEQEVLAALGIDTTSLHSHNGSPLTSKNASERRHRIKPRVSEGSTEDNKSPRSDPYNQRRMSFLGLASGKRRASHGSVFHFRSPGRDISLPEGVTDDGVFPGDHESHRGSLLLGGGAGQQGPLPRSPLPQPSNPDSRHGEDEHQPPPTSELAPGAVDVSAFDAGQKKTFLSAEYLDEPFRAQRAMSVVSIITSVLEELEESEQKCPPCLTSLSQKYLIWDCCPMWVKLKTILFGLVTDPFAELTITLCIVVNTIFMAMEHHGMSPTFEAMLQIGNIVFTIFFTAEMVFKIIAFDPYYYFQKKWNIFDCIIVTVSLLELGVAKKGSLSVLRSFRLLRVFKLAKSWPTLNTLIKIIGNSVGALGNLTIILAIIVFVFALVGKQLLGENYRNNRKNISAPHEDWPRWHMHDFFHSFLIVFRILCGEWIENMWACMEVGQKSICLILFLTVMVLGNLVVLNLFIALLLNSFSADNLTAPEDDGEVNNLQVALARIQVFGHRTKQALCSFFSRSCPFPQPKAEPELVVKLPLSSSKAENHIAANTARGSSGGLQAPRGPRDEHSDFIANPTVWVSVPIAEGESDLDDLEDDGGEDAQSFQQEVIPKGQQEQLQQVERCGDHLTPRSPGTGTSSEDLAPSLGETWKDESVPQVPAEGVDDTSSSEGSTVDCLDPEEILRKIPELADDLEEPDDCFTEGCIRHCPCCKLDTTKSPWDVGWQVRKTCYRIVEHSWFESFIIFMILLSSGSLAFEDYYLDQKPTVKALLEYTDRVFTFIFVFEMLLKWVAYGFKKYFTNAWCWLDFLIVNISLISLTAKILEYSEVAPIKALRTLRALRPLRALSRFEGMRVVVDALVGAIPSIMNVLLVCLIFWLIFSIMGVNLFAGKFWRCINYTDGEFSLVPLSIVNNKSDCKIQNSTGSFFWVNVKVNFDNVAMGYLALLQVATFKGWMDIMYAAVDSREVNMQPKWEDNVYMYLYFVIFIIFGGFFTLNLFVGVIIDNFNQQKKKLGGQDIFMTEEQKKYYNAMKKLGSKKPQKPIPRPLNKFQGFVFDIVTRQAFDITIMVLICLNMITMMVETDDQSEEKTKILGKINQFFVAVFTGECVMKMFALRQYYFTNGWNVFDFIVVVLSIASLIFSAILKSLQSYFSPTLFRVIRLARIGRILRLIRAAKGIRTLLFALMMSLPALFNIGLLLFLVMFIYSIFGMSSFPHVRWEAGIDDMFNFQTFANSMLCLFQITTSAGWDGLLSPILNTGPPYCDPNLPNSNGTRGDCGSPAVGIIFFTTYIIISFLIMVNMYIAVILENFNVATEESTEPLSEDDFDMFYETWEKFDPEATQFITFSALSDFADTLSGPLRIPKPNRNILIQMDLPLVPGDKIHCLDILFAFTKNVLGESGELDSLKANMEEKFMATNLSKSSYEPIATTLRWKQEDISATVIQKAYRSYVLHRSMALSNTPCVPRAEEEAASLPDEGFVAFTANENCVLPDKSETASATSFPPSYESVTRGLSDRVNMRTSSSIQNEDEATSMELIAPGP

Compared with `COc1cc(F)ccc1Oc1cc(Cl)ccc1C(=O)Nc1cc[nH]c(=O)c1` [Compound 16, 4-chloro-2-(4-fluoro-2-methoxyphenoxy)-N-(2-oxo-1,2-dihydropyridin-4-yl)benzamide], “2-(4-fluorophenoxy)-N-(1-(2-hydroxyethyl)-2-oxo-1,2-dihydropyridin-4-yl)-4-(trifluoromethyl)benzamide [Compound 85]” is 200-fold higher in IC50: 14 nM for the first, 2800 nM for the second.

Going from `O=C(Nc1cc[nH]c(=O)c1)c1cc(C(F)(F)F)ccc1OCC1CCCC1` [Compound 130, 2-(cyclopentylmethoxy)-N-(2-oxo-1,2-dihydropyridin-4-yl)-5-(trifluoromethyl)benzamide] to `COc1ccc(Oc2ccc(C(F)(F)F)cc2C(=O)Nc2cc[nH]c(=O)c2)c(F)c1` [Compound 55, 2-(2-fluoro-4-methoxyphenoxy)-N-(2-oxo-1,2-dihydropyridin-4-yl)-5-(trifluoromethyl)benzamide], the IC50 falls from 5100 nM to 70 nM (73-fold). The second is the more potent here.

Going from `CC(C)(C)Oc1ccc(Oc2ccc(F)cc2C(=O)Nc2cc[nH]c(=O)c2)cc1` [Compound 97, 2-(4-(tert-butoxy)phenoxy)-5-fluoro-N-(2-oxo-1,2-dihydropyridin-4-yl)benzamide] to `O=C(Nc1cc[nH]c(=O)c1)c1cc(OC(F)(F)F)ccc1Oc1ccccc1` [Compound 41, N-(2-oxo-1,2-dihydropyridin-4-yl)-2-phenoxy-5-(trifluoromethoxy)benzamide], the IC50 falls from 745 nM to 260 nM (2.9-fold). The second is the more potent here.

First: O=C(Nc1cc[nH]c(=O)c1)c1ccc(Cl)cc1Oc1c(F)cccc1Cl [Compound 18, 4-chloro-2-(2-chloro-6-fluorophenoxy)-N-(2-oxo-1,2-dihydropyridin-4-yl)benzamide]
Second: Cn1ccc(NC(=O)c2ccc(C(C)(C)C)cc2Oc2ccc(C(F)(F)F)nc2)cc1=O [Compound 148, 4-(tert-butyl)-N-(1-methyl-2-oxo-1,2-dihydropyridin-4-yl)-2-((6-(trifluoromethyl)pyridin-3-yl)oxy)benzamide]
The IC50 of the first is 27-fold higher: 12000 nM for the first, 450 nM for the second.

Going from `O=C(Nc1cc[nH]c(=O)c1)c1ccc(Cl)cc1Oc1ccc(F)cc1Cl` [Compound 14, 4-chloro-2-(2-chloro-4-fluorophenoxy)-N-(2-oxo-1,2-dihydropyridin-4-yl)benzamide] to `O=C(Nc1cc[nH]c(=O)c1)c1ccc(C(F)(F)F)cc1OCC1CCOC1` (stereo not drawn) [Compound 121, N-(2-oxo-1,2-dihydropyridin-4-yl)-2-((tetrahydrofuran-3-yl)methoxy)-4-(trifluoromethyl)benzamide], the IC50 rises from 65 nM to 19000 nM (290-fold). The first is the more potent here.

Compared with `O=C(Nc1ccc(=O)[nH]c1)c1cc(C(F)(F)F)ccc1Oc1ccc(F)cc1` [Compound 4, 2-(4-fluorophenoxy)-N-(6-oxo-1,6-dihydropyridin-3-yl)-5-(trifluoromethyl)benzamide], `O=C(Nc1cc[nH]c(=O)c1)c1cc(OC(F)(F)F)ccc1OCC1CCCC1` [Compound 136, 2-(cyclopentylmethoxy)-N-(2-oxo-1,2-dihydropyridin-4-yl)-5-(trifluoromethoxy)benzamide] is 7.4-fold higher in IC50: 350 nM for the first, 2600 nM for the second. The first is the more potent here.

Going from `Cc1ccc(Oc2ccc(C(F)(F)F)cc2C(=O)Nc2cc[nH]c(=O)c2)c(F)c1F` [Compound 92, 2-(2,3-difluoro-4-methylphenoxy)-N-(2-oxo-1,2-dihydropyridin-4-yl)-5-(trifluoromethyl)benzamide] to `O=C(Nc1cc[nH]c(=O)c1)c1c(Oc2ccccc2)cc(C(F)(F)F)cc1C(F)(F)F` [Compound 156, N-(2-oxo-1,2-dihydropyridin-4-yl)-2-phenoxy-4,6-bis(trifluoromethyl)benzamide], the IC50 falls from 135 nM to 52 nM (2.6-fold). The second is the more potent here.

`COc1c(F)cccc1Oc1ccc(C(F)(F)F)cc1C(=O)Nc1cc[nH]c(=O)c1` [Compound 54, 2-(3-fluoro-2-methoxyphenoxy)-N-(2-oxo-1,2-dihydropyridin-4-yl)-5-(trifluoromethyl)benzamide] and `Cc1cc(F)ccc1Oc1ccc(OC(F)(F)F)cc1C(=O)Nc1cc[nH]c(=O)c1` [Compound 40, 2-(4-fluoro-2-methylphenoxy)-N-(2-oxo-1,2-dihydropyridin-4-yl)-5-(trifluoromethoxy)benzamide] are within 1.5-fold of each other in IC50: 30 nM for the first, 40 nM for the second.

First: CC(C)c1ccc(Oc2ccc(F)cc2C(=O)Nc2cc[nH]c(=O)c2)cc1 [Compound 99, 5-fluoro-2-(4-isopropylphenoxy)-N-(2-oxo-1,2-dihydropyridin-4-yl)benzamide]
Second: O=C(Nc1cc[nH]c(=O)c1)c1cc(C(F)(F)F)ccc1Oc1ccccc1 [Compound 32, N-(2-oxo-1,2-dihydropyridin-4-yl)-2-phenoxy-5-(trifluoromethyl)benzamide]
The IC50 of the first is 25-fold higher: 5150 nM for the first, 205 nM for the second.

Compared with `Cc1cc(F)ccc1Oc1cc(C(F)(F)F)cc(C(F)(F)F)c1C(=O)Nc1cc[nH]c(=O)c1` [Compound 153, 2-(4-fluoro-2-methylphenoxy)-N-(2-oxo-1,2-dihydropyridin-4-yl)-4,6-bis(trifluoromethyl)benzamide], `COCCc1ccc(Oc2ccc(F)cc2C(=O)Nc2cc[nH]c(=O)c2)cc1` [Compound 102, 5-fluoro-2-(4-(2-methoxyethyl)phenoxy)-N-(2-oxo-1,2-dihydropyridin-4-yl)benzamide] is 1700-fold higher in IC50: 10 nM for the first, 17100 nM for the second. The first is the more potent here.

First: O=C(Nc1ccc(=O)[nH]c1)c1ccccc1Oc1ccc(F)cc1 [Compound 3, 2-(4-fluorophenoxy)-N-(6-oxo-1,6-dihydropyridin-3-yl)benzamide]
Second: O=C(Nc1cc[nH]c(=O)c1)c1ccc(C(F)(F)F)cc1O[C@@H]1C[C@H]2CCC1C2 [Compound 118, 2-((2R)-bicyclo[2.2.1]heptan-2-yloxy)-N-(2-oxo-1,2-dihydropyridin-4-yl)-4-(trifluoromethyl)benzamide]
The IC50 of the first is 18-fold higher: 13500 nM for the first, 765 nM for the second. The second is the more potent here.

Going from `CC1(COc2cc(C(F)(F)F)ccc2C(=O)Nc2cc[nH]c(=O)c2)CC1` [Compound 119] to `CCCOc1ccc(Oc2ccc(F)cc2C(=O)Nc2cc[nH]c(=O)c2)cc1` [Compound 100, 5-fluoro-N-(2-oxo-1,2-dihydropyridin-4-yl)-2-(4-propoxyphenoxy)benzamide], the IC50 falls from 14000 nM to 155 nM (90-fold). The second is the more potent here.

First: O=C(Nc1cc[nH]c(=O)c1)c1cc(C(F)(F)F)ccc1Oc1ccc(Cl)cc1 [Compound 58, 2-(4-chlorophenoxy)-N-(2-oxo-1,2-dihydropyridin-4-yl)-5-(trifluoromethyl)benzamide]
Second: O=C(Nc1cc[nH]c(=O)c1)c1ccc(C(F)(F)F)cc1OC1CCCCC1 [Compound 128, 2-(cyclohexyloxy)-N-(2-oxo-1,2-dihydropyridin-4-yl)-4-(trifluoromethyl)benzamide]
The IC50 of the first is 10-fold lower: 54 nM for the first, 560 nM for the second. The first is the more potent here.

Compared with `O=C(Nc1cc[nH]c(=O)c1)c1ccc(C(F)(F)F)cc1Oc1ccc(C(F)(F)F)nc1` [Compound 144, N-(2-oxo-1,2-dihydropyridin-4-yl)-4-(trifluoromethyl)-2-((6-(trifluoromethyl)pyridin-3-yl)oxy)benzamide], `COc1ccc(Oc2ccc(F)cc2C(=O)Nc2cc[nH]c(=O)c2)cc1` [Compound 104, 5-fluoro-2-(4-methoxyphenoxy)-N-(2-oxo-1,2-dihydropyridin-4-yl)benzamide] is 1.9-fold higher in IC50: 615 nM for the first, 1150 nM for the second. The first is the more potent here.

Compared with `Cc1cc(F)ccc1Oc1cc(C(F)(F)C(F)(F)F)ccc1C(=O)Nc1cc[nH]c(=O)c1` [Compound 112, 2-(4-fluoro-2-methylphenoxy)-N-(2-oxo-1,2-dihydropyridin-4-yl)-4-(perfluoroethyl)benzamide], `O=C(Nc1cc[nH]c(=O)c1)c1cc(OC(F)(F)F)ccc1OCCC(F)(F)F` [Compound 138, N-(2-oxo-1,2-dihydropyridin-4-yl)-5-(trifluoromethoxy)-2-(3,3,3-trifluoropropoxy)benzamide] is 91-fold higher in IC50: 16 nM for the first, 1450 nM for the second. The first is the more potent here.

Compared with `COc1ccc(Oc2ccc(C(F)(F)F)cc2C(=O)Nc2cc[nH]c(=O)c2)cc1` [Compound 45, 2-(4-methoxyphenoxy)-N-(2-oxo-1,2-dihydropyridin-4-yl)-5-(trifluoromethyl)benzamide], `O=C(Nc1cc[nH]c(=O)c1)c1c(Oc2ccc(F)cc2)cccc1C(F)(F)F` [Compound 43, 2-(4-fluorophenoxy)-N-(2-oxo-1,2-dihydropyridin-4-yl)-6-(trifluoromethyl)benzamide] is 5.9-fold higher in IC50: 64 nM for the first, 380 nM for the second. The first is the more potent here.

`O=C(Nc1cc[nH]c(=O)c1)c1ccc(C(F)(F)F)cc1OC1C[C@@H]2C[C@@H]2C1` (stereo partly drawn) [Compound 125, 2-((1R,5S)-bicyclo[3.1.0]hexan-3-yloxy)-N-(2-oxo-1,2-dihydropyridin-4-yl)-4-(trifluoromethyl)benzamide] showed an IC50 of 17500 nM.
